Species on record: Rattus norvegicus
Assay: DrugMatrix - Regimen: Daily Repeat
Format: toxicity, organism-based, Sprague-Dawley
Parameters: regimen Daily Repeat, gender Male, age 6-8 weeks
Conditions: in vivo, ip, route intraperitoneal, vehicle 100 % SALINE; for ABSOLUTE BASOPHIL / ABSOLUTE EOSINOPHIL / ABSOLUTE LYMPHOCYTE / ABSOLUTE MONOCYTE / ABSOLUTE SEGMENTED NEUTROPHIL / BASOPHIL / EOSINOPHIL / ERYTHROCYTE COUNT / HEMATOCRIT / HEMOGLOBIN / LEUKOCYTE COUNT / LYMPHOCYTE / MEAN CORPUSCULAR HEMOGLOBIN / MEAN CORPUSCULAR HEMOGLOBIN CONCENTRATION / MEAN CORPUSCULAR VOLUME / MONOCYTE / NEUTROPHIL / PLATELET COUNT: tissue Blood
[1] = 0 mg/kg, 120 h, dose level Control, time 5 day
[2] = 0 mg/kg, 120 h, tissue Plasma, dose level Control, time 5 day
[3] = 0 mg/kg, […], dose level Control, time 14 day
[4] = 0 mg/kg, […], dose level Control, time 28 day
[5] = 0 mg/kg, […], tissue Plasma, dose level Control, time 14 day
[6] = 0 mg/kg, […], tissue Plasma, dose level Control, time 28 day
[7] = 2 mg/kg, 120 h, dose level High, time 5 day
[8] = 2 mg/kg, 120 h, tissue Plasma, dose level High, time 5 day
[9] = 2 mg/kg, […], dose level High, time 14 day
[10] = 2 mg/kg, […], dose level High, time 28 day

For CADMIUM DICHLORIDE, the ABSOLUTE BASOPHIL [1] was 32 cells/µL, the ABSOLUTE EOSINOPHIL [1] was 110 cells/µL and the ABSOLUTE LYMPHOCYTE [1] was 6630 cells/µL. For the same substance, the ABSOLUTE MONOCYTE [1] was 140 cells/µL, the ABSOLUTE SEGMENTED NEUTROPHIL [1] was 1170 cells/µL and the BASOPHIL [1] was 0.38%. For the same substance, the EOSINOPHIL [1] was 1.28%, the “ERYTHROCYTE COUNT” value [1] was 7.45 x10E6/uL and the HEMATOCRIT [1] was 45.74%. The HEMOGLOBIN [1] was 14.72 G/DL, the “LEUKOCYTE COUNT” value [1] was 8.11 x10E3/uL and the LYMPHOCYTE [1] was 81.3%. The “MEAN CORPUSCULAR HEMOGLOBIN” value [1] was 19.76 pg, the “MEAN CORPUSCULAR HEMOGLOBIN CONCENTRATION” value [1] was 32.16 G/DL and the “MEAN CORPUSCULAR VOLUME” value [1] was 61.38 fL. The MONOCYTE [1] was 1.76%, the NEUTROPHIL [1] was 14.9% and the “PLATELET COUNT” value [1] was 1322.4 x10E3/uL. For the same substance, the “ALANINE AMINOTRANSFERASE” value [2] was 25.8 u/L, the ALBUMIN [2] was 3.64 G/DL and the “ASPARTATE AMINOTRANSFERASE” value [2] was 81.4 u/L. The “BLOOD UREA NITROGEN” value [2] was 14.4 mg/dL, the CHOLESTEROL [2] was 69.2 mg/dL and the “CREATINE PHOSPHOKINASE” value [2] was 303.2 u/L. For the same substance, the CREATININE [2] was 0.56 mg/dL, the GLUCOSE [2] was 125.4 mg/dL and the “LACTATE DEHYDROGENASE” value [2] was 105.4 u/L. The LIPASE [2] was 22.4 u/L, the POTASSIUM [2] was 5.52 MEQ/L and the SODIUM [2] was 147 MEQ/L. For the same substance, the “TOTAL BILIRUBIN” value [2] was 0.2 mg/dL, the “TOTAL PROTEIN” value [2] was 6.1 G/DL and the “URIC ACID” value [2] was 1.06 mg/dL. The ABSOLUTE BASOPHIL [3] was 130 cells/µL, the ABSOLUTE EOSINOPHIL [3] was 140 cells/µL and the ABSOLUTE LYMPHOCYTE [3] was 13500 cells/µL. It also gave an ABSOLUTE MONOCYTE [3] of 400 cells/µL, an ABSOLUTE SEGMENTED NEUTROPHIL [3] of 2330 cells/µL and a BASOPHIL [3] of 0.72%. The EOSINOPHIL [3] was 0.86%, the “ERYTHROCYTE COUNT” value [3] was 7.74 x10E6/uL and the HEMATOCRIT [3] was 45.98%. The “LEUKOCYTE COUNT” value [3] was 16.61 x10E3/uL, the LYMPHOCYTE [3] was 81.34% and the “MEAN CORPUSCULAR HEMOGLOBIN” value [3] was 18 pg. The “MEAN CORPUSCULAR HEMOGLOBIN CONCENTRATION” value [3] was 30.22 G/DL, the “MEAN CORPUSCULAR VOLUME” value [3] was 59.4 fL and the MONOCYTE [3] was 2.46%. The NEUTROPHIL [3] was 14.14%, the “PLATELET COUNT” value [3] was 1445.5 x10E3/uL and the ABSOLUTE BASOPHIL [4] was 91 cells/µL. For the same substance, the ABSOLUTE EOSINOPHIL [4] was 110 cells/µL, the ABSOLUTE LYMPHOCYTE [4] was 9910 cells/µL and the ABSOLUTE MONOCYTE [4] was 210 cells/µL. The ABSOLUTE SEGMENTED NEUTROPHIL [4] was 1560 cells/µL, the BASOPHIL [4] was 0.77% and the EOSINOPHIL [4] was 0.92%. The “ERYTHROCYTE COUNT” value [4] was 8.21 x10E6/uL, the HEMATOCRIT [4] was 47.53% and the HEMOGLOBIN [4] was 15.65 G/DL. For the same substance, the “LEUKOCYTE COUNT” value [4] was 11.91 x10E3/uL, the LYMPHOCYTE [4] was 83.34% and the “MEAN CORPUSCULAR HEMOGLOBIN” value [4] was 19.07 pg. For the same substance, the “MEAN CORPUSCULAR HEMOGLOBIN CONCENTRATION” value [4] was 32.93 G/DL, the “MEAN CORPUSCULAR VOLUME” value [4] was 57.9 fL and the MONOCYTE [4] was 1.68%. The NEUTROPHIL [4] was 12.97%, the “PLATELET COUNT” value [4] was 1323.8 x10E3/uL and the “ALANINE AMINOTRANSFERASE” value [5] was 31.6 u/L. For the same substance, the ALBUMIN [5] was 3.66 G/DL, the “ALKALINE PHOSPHATASE” value [5] was 228.6 u/L and the “ASPARTATE AMINOTRANSFERASE” value [5] was 79.6 u/L. The “BLOOD UREA NITROGEN” value [5] was 11.2 mg/dL, the CHLORIDE [5] was 107 MEQ/L and the CHOLESTEROL [5] was 57 mg/dL. For the same substance, the CREATININE [5] was 0.5 mg/dL, the GLUCOSE [5] was 124.4 mg/dL and the “LACTATE DEHYDROGENASE” value [5] was 106.4 u/L. The LIPASE [5] was 24.4 u/L, the PHOSPHORUS [5] was 10.52 mg/dL and the POTASSIUM [5] was 6.34 MEQ/L. The SODIUM [5] was 149.2 MEQ/L, the “TOTAL BILIRUBIN” value [5] was 0.2 mg/dL and the “TOTAL PROTEIN” value [5] was 6.48 G/DL. The “URIC ACID” value [5] was 0.94 mg/dL, the “ALANINE AMINOTRANSFERASE” value [6] was 30 u/L and the ALBUMIN [6] was 3.71 G/DL. The “ALKALINE PHOSPHATASE” value [6] was 186.8 u/L, the “ASPARTATE AMINOTRANSFERASE” value [6] was 78.2 u/L and the “BLOOD UREA NITROGEN” value [6] was 14.2 mg/dL. The CHOLESTEROL [6] was 44.9 mg/dL, the “CREATINE PHOSPHOKINASE” value [6] was 334.3 u/L and the CREATININE [6] was 0.6 mg/dL. For the same substance, the GLUCOSE [6] was 147.2 mg/dL, the “LACTATE DEHYDROGENASE” value [6] was 123.1 u/L and the LIPASE [6] was 9.6 u/L. For the same substance, the PHOSPHORUS [6] was 10.01 mg/dL, the POTASSIUM [6] was 6.57 MEQ/L and the SODIUM [6] was 149.5 MEQ/L. The “TOTAL BILIRUBIN” value [6] was 0.21 mg/dL, the “TOTAL PROTEIN” value [6] was 6.66 G/DL and the “URIC ACID” value [6] was 1.26 mg/dL. It also gave an ABSOLUTE BASOPHIL [7] of 82 cells/µL, an ABSOLUTE EOSINOPHIL [7] of 170 cells/µL and an ABSOLUTE LYMPHOCYTE [7] of 6790 cells/µL. For the same substance, the ABSOLUTE MONOCYTE [7] was 750 cells/µL, the “ABSOLUTE SEGMENTED NEUTROPHIL” value [7] was 6.49 CELLS/uL and the BASOPHIL [7] was 0.52%. For the same substance, the EOSINOPHIL [7] was 1.36%, the “ERYTHROCYTE COUNT” value [7] was 7.45 x10E6/uL and the HEMATOCRIT [7] was 43.86%. The HEMOGLOBIN [7] was 14.46 G/DL, the “LEUKOCYTE COUNT” value [7] was 14.43 x10E3/uL and the LYMPHOCYTE [7] was 52.2%. For the same substance, the “MEAN CORPUSCULAR HEMOGLOBIN” value [7] was 19.4 pg, the “MEAN CORPUSCULAR HEMOGLOBIN CONCENTRATION” value [7] was 32.92 G/DL and the “MEAN CORPUSCULAR VOLUME” value [7] was 59.02 fL. The MONOCYTE [7] was 5.12%, the NEUTROPHIL [7] was 39.98% and the “PLATELET COUNT” value [7] was 1991.4 x10E3/uL. The “ALANINE AMINOTRANSFERASE” value [8] was 32 u/L, the ALBUMIN [8] was 3.14 G/DL and the “ALKALINE PHOSPHATASE” value [8] was 100.2 u/L. For the same substance, the “ASPARTATE AMINOTRANSFERASE” value [8] was 134 u/L, the “BLOOD UREA NITROGEN” value [8] was 16.8 mg/dL and the CHOLESTEROL [8] was 54.8 mg/dL. The “CREATINE PHOSPHOKINASE” value [8] was 243.4 u/L, the CREATININE [8] was 0.44 mg/dL and the GLUCOSE [8] was 120.4 mg/dL. The “LACTATE DEHYDROGENASE” value [8] was 161.2 u/L, the LIPASE [8] was 76.6 u/L and the PHOSPHORUS [8] was 11.2 mg/dL. The POTASSIUM [8] was 6.38 MEQ/L, the SODIUM [8] was 146 MEQ/L and the “TOTAL BILIRUBIN” value [8] was 0.2 mg/dL. For the same substance, the “TOTAL PROTEIN” value [8] was 5.32 G/DL, the “URIC ACID” value [8] was 1.7 mg/dL and the ABSOLUTE BASOPHIL [9] was 180 cells/µL. The ABSOLUTE EOSINOPHIL [9] was 86 cells/µL, the ABSOLUTE LYMPHOCYTE [9] was 8270 cells/µL and the ABSOLUTE MONOCYTE [9] was 890 cells/µL. For the same substance, the “ABSOLUTE SEGMENTED NEUTROPHIL” value [9] was 6.16 CELLS/uL, the BASOPHIL [9] was 1.22% and the EOSINOPHIL [9] was 0.6%. For the same substance, the “ERYTHROCYTE COUNT” value [9] was 7.03 x10E6/uL, the HEMATOCRIT [9] was 40.98% and the HEMOGLOBIN [9] was 13.48 G/DL. The “LEUKOCYTE COUNT” value [9] was 15.72 x10E3/uL, the LYMPHOCYTE [9] was 52.14% and the “MEAN CORPUSCULAR HEMOGLOBIN” value [9] was 19.2 pg. The “MEAN CORPUSCULAR HEMOGLOBIN CONCENTRATION” value [9] was 32.92 G/DL, the “MEAN CORPUSCULAR VOLUME” value [9] was 58.34 fL and the MONOCYTE [9] was 5.4%. For the same substance, the NEUTROPHIL [9] was 39.7%, the “PLATELET COUNT” value [9] was 2275.2 x10E3/uL and the ABSOLUTE BASOPHIL [10] was 270 cells/µL. It also gave an ABSOLUTE EOSINOPHIL [10] of 150 cells/µL, an ABSOLUTE LYMPHOCYTE [10] of 12500 cells/µL and an ABSOLUTE MONOCYTE [10] of 620 cells/µL. For the same substance, the ABSOLUTE SEGMENTED NEUTROPHIL [10] was 4220 cells/µL, the BASOPHIL [10] was 1.34% and the EOSINOPHIL [10] was 0.93%. The “ERYTHROCYTE COUNT” value [10] was 7.42 x10E6/uL, the HEMATOCRIT [10] was 44.63% and the “LEUKOCYTE COUNT” value [10] was 17.89 x10E3/uL. For the same substance, the LYMPHOCYTE [10] was 68.87%, the “MEAN CORPUSCULAR HEMOGLOBIN” value [10] was 18.83 pg and the “MEAN CORPUSCULAR HEMOGLOBIN CONCENTRATION” value [10] was 31.21 G/DL. The MONOCYTE [10] was 3.41%.

From ChEMBL document CHEMBL3885881, “DrugMatrix”
